Counter-ions that a name gives are not always drawn.
assay: in vitro; settings: rat, gh3-tre-luc cells, AC50 (uM) modified / 1000

**Q.** Which CC50 at 24 h does the source give for `CCO[Si](CCCNC(N)=O)(OCC)OCC` [1-[3-(Triethoxysilyl)propyl]urea] here?
**A.** > 90 µM

**Q.** Which CC50 at 24 h does the source give for `Cc1cscn1` [4-Methylthiazole] here?
**A.** > 90 µM

**Q.** For `O=c1[nH]c(=O)n([C@H]2C[C@H](O)[C@@H](CO)O2)cc1I` [Idoxuridine], which CC50 at 24 h is on record?
**A.** > 20 µM

**Q.** With `CS(=O)(=O)c1ccc([C@@H](O)[C@@H](CF)NC(=O)C(Cl)Cl)cc1` [Florfenicol] as the molecule, how does the CC50 at 24 h read?
**A.** > 20 µM

**Q.** With `C=CC1CC2C=CC1C2` (stereo not shown) [5-Vinyl-2-norbornene] as the molecule, how does the CC50 at 24 h read?
**A.** > 90 µM

**Q.** With `Nc1nc(N)c(-c2ccccc2)s1` [Amiphenazole] as the molecule, how does the CC50 at 24 h read?
**A.** > 50 µM

**Q.** Which CC50 at 24 h does the source give for `Cl[Si](Cl)(c1ccccc1)c1ccccc1` [Dichlorodiphenylsilane] here?
**A.** > 90 µM

**Q.** Which CC50 at 24 h does the source give for `CCCCOCCOCCOCCO` [2-[2-(2-Butoxyethoxy)ethoxy]ethanol] here?
**A.** > 90 µM

**Q.** With `CCCc1cc(C(N)=S)ccn1` [Prothionamide] as the molecule, how does the CC50 at 24 h read?
**A.** > 50 µM

**Q.** Which CC50 at 24 h does the source give for `CCCC(C)C1(CC)C(=O)NC(=O)NC1=O` (stereo not shown) [Pentobarbital] here?
**A.** > 50 µM

**Q.** For `CCOC(=O)c1c(N)sc2c1CCN(Cc1ccccc1)C2` [Tinoridine], which CC50 at 24 h is on record?
**A.** > 50 µM

**Q.** For `O=C(O)C(=O)Cc1c[nH]c2ccccc12` [Indole-3-pyruvic acid], which CC50 at 24 h is on record?
**A.** > 90 µM

**Q.** With `CCOC(=O)c1nc(C(Cl)(Cl)Cl)n(-c2ccc(Cl)cc2Cl)n1` [Fenchlorazole-ethyl] as the molecule, how does the CC50 at 24 h read?
**A.** 52.1 µM

**Q.** For `CCOC(=O)[C@@H](C)Oc1ccc(Oc2nc3ccc(Cl)cc3o2)cc1` [Fenoxaprop-P-ethyl], which CC50 at 24 h is on record?
**A.** > 90 µM

**Q.** For `CC1(C)CCC(Cc2ccc(Cl)cc2)C1(O)Cn1cncn1` (stereo not shown) [Metconazole], which CC50 at 24 h is on record?
**A.** 82.6 µM

**Q.** For `N[C@@H](Cc1c[nH]cn1)C(=O)O` [L-Histidine hydrochloride], which CC50 at 24 h is on record?
**A.** > 50 µM

**Q.** With `CCCCOc1cc(C(=O)OCCN(CC)CC)ccc1N` [Benoxinate hydrochloride] as the molecule, how does the CC50 at 24 h read?
**A.** > 20 µM

**Q.** For `CCCC(=O)Nc1ccc(OCC(O)CNC(C)C)c(C(C)=O)c1` (stereo not shown) [Acebutolol hydrochloride], which CC50 at 24 h is on record?
**A.** > 20 µM

**Q.** With `N=C1N=C(N)c2cc3ccccc3cc21` [1,3-Diiminobenz(f)isoindoline] as the molecule, how does the CC50 at 24 h read?
**A.** 39.2 µM

**Q.** For `Clc1ccccc1-c1nc(-c2ccncc2)no1` [Pifexole], which CC50 at 24 h is on record?
**A.** > 50 µM

**Q.** For `O=C(NC(O)C(Cl)(Cl)Cl)NC(O)C(Cl)(Cl)Cl` (stereo not shown) [Dichloralurea], which CC50 at 24 h is on record?
**A.** > 50 µM

**Q.** Which CC50 at 24 h does the source give for `Cc1c(C(=O)NN2CCCCC2)nn(-c2ccc(Cl)cc2Cl)c1-c1ccc(Cl)cc1` [Rimonabant] here?
**A.** 13.9 µM

**Q.** For `CN1CCOC(c2ccccc2)c2ccccc2C1` (stereo not shown) [Nefopam hydrochloride], which CC50 at 24 h is on record?
**A.** > 20 µM

**Q.** With `NC[C@@H]1O[C@H](O[C@H]2[C@@H](O)[C@H](O[C@@H]3[C@@H](O)[C@H](N)C[C@H](N)[C@H]3O[C@H]3O[C@H](CO)[C@@H](O)[C@H](O)[C@H]3N)O[C@@H]2CO)[C@H](N)[C@@H](O)[C@@H]1O` [Paromomycin sulfate] as the molecule, how does the CC50 at 24 h read?
**A.** > 50 µM

**Q.** With `NCCNCCO` [N-(Hydroxyethyl)ethylenediamine] as the molecule, how does the CC50 at 24 h read?
**A.** > 90 µM

**Q.** For `C=C(C)C(=O)Nc1ccc(Cl)c(Cl)c1` [Chloranocryl], which CC50 at 24 h is on record?
**A.** > 90 µM

**Q.** Which CC50 at 24 h does the source give for `CC(=O)/C=C/C1=C(C)CCCC1(C)C` [beta-Ionone] here?
**A.** > 90 µM

**Q.** Which CC50 at 24 h does the source give for `CCCCCCC1CCOC1=O` (stereo not drawn) [alpha-Hexyl-gamma-butyrolactone] here?
**A.** > 90 µM

**Q.** For `COc1cc(C(C)C)c2c(c1)S(=O)(=O)N(COc1cc(=O)n3cccc(OCCN4CCCCC4)c3n1)C2=O` [SSR69071], which CC50 at 24 h is on record?
**A.** 11.9 µM

**Q.** With `COc1ccc(/C=C/c2cc(OC)cc(=O)o2)cc1` [Yangonin] as the molecule, how does the CC50 at 24 h read?
**A.** > 40 µM

**Q.** For `COc1ccccc1N1CCN(CCCC(=O)c2ccc(F)cc2)CC1` [Fluanisone], which CC50 at 24 h is on record?
**A.** > 50 µM

**Q.** For `CCC(=O)Oc1ccc2c(c1)CC[C@@H]1[C@@H]2CC[C@]2(C)[C@@H](OC(=O)CC)CC[C@@H]12` [Estradiol dipropionate], which CC50 at 24 h is on record?
**A.** > 50 µM

**Q.** Which CC50 at 24 h does the source give for `CC1=C(C)C(=O)C(C(CCCCCC(=O)O)c2ccccc2)=C(C)C1=O` (racemic) [(+-)-7-(3,5,6-trimethyl-1,4-benzoquinon-2-yl)-7-phenylheptanoic acid] here?
**A.** > 50 µM

**Q.** With `CO[Si](OC)(OC)OC` [Tetramethyl orthosilicate] as the molecule, how does the CC50 at 24 h read?
**A.** 81.5 µM

**Q.** With `COC(=O)NCCC[Si](OC)(OC)OC` [Methyl [3-(trimethoxysilyl)propyl]carbamate] as the molecule, how does the CC50 at 24 h read?
**A.** > 90 µM

**Q.** With `O=[N+]([O-])c1cccc(S(=O)(=O)O)c1` [Sodium 3-nitrobenzenesulfonate] as the molecule, how does the CC50 at 24 h read?
**A.** > 90 µM

**Q.** Which CC50 at 24 h does the source give for `CCC1NC(=O)c2cc(S(N)(=O)=O)c(Cl)cc2N1` (stereo not shown) [Quinethazone] here?
**A.** > 20 µM

**Q.** With `O=C(O)Cc1c(Cl)ccc(Cl)c1Cl` [Chlorfenac] as the molecule, how does the CC50 at 24 h read?
**A.** > 90 µM

**Q.** Which CC50 at 24 h does the source give for `Cc1ncc([N+](=O)[O-])n1C` [1,2-Dimethyl-5-nitroimidazole] here?
**A.** > 90 µM

**Q.** Which CC50 at 24 h does the source give for `CCCCCN(C)CCC(O)(P(=O)(O)O)P(=O)(O)O` [Ibandronate sodium] here?
**A.** > 50 µM

**Q.** With `OC[C@H]1O[C@@H](Oc2ccc(O)cc2)[C@H](O)[C@@H](O)[C@@H]1O` [Arbutin] as the molecule, how does the CC50 at 24 h read?
**A.** > 90 µM

**Q.** For `O=C(O)CN(CCN(CC(=O)O)CC(=O)O)CCN(CC(=O)O)CC(=O)O` [Pentetic acid], which CC50 at 24 h is on record?
**A.** 25 µM

**Q.** For `CN` [Methylammonium nitrate], which CC50 at 24 h is on record?
**A.** > 100 µM

**Q.** Which CC50 at 24 h does the source give for `CC(=O)OCc1ccccc1` [Benzyl acetate] here?
**A.** > 90 µM

**Q.** Which CC50 at 24 h does the source give for `FC(F)(F)c1ccc(Cl)c(Cl)c1` [1,2-Dichloro-4-(trifluoromethyl)benzene] here?
**A.** > 90 µM

**Q.** With `CC(C)[N+](C)(CCC(C(N)=O)(c1ccccc1)c1ccccc1)C(C)C` [Isopropamide] as the molecule, how does the CC50 at 24 h read?
**A.** > 20 µM

**Q.** Which CC50 at 24 h does the source give for `CC(=O)OC(C)(C)C` [tert-Butyl acetate] here?
**A.** > 90 µM

**Q.** With `C[C@@H]1C[C@H]2[C@@H]3CCC4=CC(=O)C=C[C@]4(C)[C@@]3(F)[C@@H](O)C[C@]2(C)[C@@]1(O)C(=O)COC(=O)c1cccc(S(=O)(=O)O)c1` [Dexamethazone metasulfobenzoate sodium] as the molecule, how does the CC50 at 24 h read?
**A.** > 50 µM

**Q.** With `CCCC(=O)O[C@]1(C(=O)COC(C)=O)CC[C@H]2[C@@H]3C[C@H](F)C4=CC(=O)C=C[C@]4(C)[C@@]3(F)[C@@H](O)C[C@@]21C` [Difluprednate] as the molecule, how does the CC50 at 24 h read?
**A.** > 50 µM

**Q.** For `CO[C@H]1C[C@H](O[C@@H]2/C(C)=C/C[C@@H]3C[C@@H](C[C@]4(CC[C@H](C)[C@@H](C5CCCCC5)O4)O3)OC(=O)[C@@H]3C=C(C)/C(=N/O)[C@H]4OC/C(=C\C=C\[C@@H]2C)[C@]43O)O[C@@H](C)[C@@H]1O` [Selamectin], which CC50 at 24 h is on record?
**A.** 33.2 µM

**Q.** Which CC50 at 24 h does the source give for `CC(C)CCCC(C)NC(C)C` (stereo not shown) [Iproheptine] here?
**A.** > 50 µM

**Q.** With `Cc1ccc(C)c2ccccc12` [1,4-Dimethylnaphthalene] as the molecule, how does the CC50 at 24 h read?
**A.** > 90 µM

**Q.** For `Cc1cc(-c2ccccc2)nnc1NCCN1CCOCC1` [Minaprine dihydrochloride], which CC50 at 24 h is on record?
**A.** > 50 µM

**Q.** Which CC50 at 24 h does the source give for `NC(Cc1c[nH]c2ccccc12)C(=O)O` (racemic) [dl-Tryptophan] here?
**A.** > 50 µM

same assay, conditions: rat, gh3-tre-luc cells, AC50 (uM) modified / 1000, Tox21_110001=Tox21_112075; viability, 1 nM T3 present, 24 h

**Q.** Which CC50 at 24 h does the source give for `COP(=S)(OC)Oc1ccc(Sc2ccc(OP(=S)(OC)OC)cc2)cc1` [Temephos] here?
**A.** > 50 µM

same assay, conditions: rat, gh3-tre-luc cells, AC50 (uM) modified / 1000, Tox21_110001=Tox21_112842; viability, 1 nM T3 present, 24 h

**Q.** For `COc1cc(CC(C)N)cc2c1OCO2` (stereo not shown) [1-(7-Methoxy-1,3-benzodioxol-5-yl)propan-2-amine hydrochloride], which CC50 at 24 h is on record?
**A.** > 100 µM

same assay, conditions: rat, gh3-tre-luc cells, AC50 (uM) modified / 1000, Tox21_110001=Tox21_200144; viability, 1 nM T3 present, 24 h

**Q.** For `Cc1ccc(N=C=O)cc1N=C=O` [Toluene diisocyanate], which CC50 at 24 h is on record?
**A.** > 90 µM

same assay, conditions: rat, gh3-tre-luc cells, AC50 (uM) modified / 1000, Tox21_110001=Tox21_201786; viability, 1 nM T3 present, 24 h

**Q.** With `CCCC=NO` [Butanal oxime] as the molecule, how does the CC50 at 24 h read?
**A.** > 90 µM

same assay, conditions: rat, gh3-tre-luc cells, AC50 (uM) modified / 1000, Tox21_110001=Tox21_202220; viability, 1 nM T3 present, 24 h

**Q.** For `Oc1ccc(-c2ccccc2)cc1` [4-Phenylphenol], which CC50 at 24 h is on record?
**A.** 62.2 µM

same assay, conditions: rat, gh3-tre-luc cells, AC50 (uM) modified / 1000, Tox21_110001=Tox21_301360; viability, 1 nM T3 present, 24 h

**Q.** For `CON(C)C(=O)Nc1ccc(Cl)cc1` [Monolinuron], which CC50 at 24 h is on record?
**A.** > 90 µM

same assay, conditions: rat, gh3-tre-luc cells, AC50 (uM) modified / 1000, Tox21_110001=Tox21_301778; viability, 1 nM T3 present, 24 h

**Q.** Which CC50 at 24 h does the source give for `COP(=S)(OC)Oc1ccc(Sc2ccc(OP(=S)(OC)OC)cc2)cc1` [Temephos] here?
**A.** > 90 µM

same assay, conditions: rat, gh3-tre-luc cells, AC50 (uM) modified / 1000, Tox21_110001=Tox21_301917; viability, 1 nM T3 present, 24 h

**Q.** Which CC50 at 24 h does the source give for `CCOP(=O)(O)C(N)=O` [Fosamine ammonium] here?
**A.** > 90 µM

same assay, conditions: rat, gh3-tre-luc cells, AC50 (uM) modified / 1000, Tox21_110001=Tox21_302015; viability, 1 nM T3 present, 24 h

**Q.** For `CCCCNP(N)(N)=S` [N-Butylphosphorothioic triamide], which CC50 at 24 h is on record?
**A.** > 90 µM

same assay, conditions: rat, gh3-tre-luc cells, AC50 (uM) modified / 1000, Tox21_110001=Tox21_302734; viability, 1 nM T3 present, 24 h

**Q.** Which CC50 at 24 h does the source give for `Oc1ccc(-c2ccccc2)cc1` [4-Phenylphenol] here?
**A.** > 90 µM

Reference: publication PMC6792352, “Limited Chemical Structural Diversity Found to Modulate Thyroid Hormone Receptor in the Tox21 Chemical Library” (Environmental Health Perspectives, 2019)
